Test results from patent publication US6358688B1, “Immortalized human middle ear epithelial cell lines” (House Ear Institute, priority 1999, dated 2002).

Tests used:
[1] = system: HPV-transformed human middle ear epithelial cell line HMEEC-1; experiment: G418 selection of cultured cells; type: cell-based; details: G418 0.4 mg/ml, 2 and 7 days post addition
Description: (§1) Passage 3 human middle ear epithelial cell cultures (at 50-70% confluence) were infected with 1 ml of virus stock diluted in 9 ml of fresh SFM-HG for 48 hours. The virus was then removed and the medium was replaced with fresh SFM-HG. The cells were allowed to proliferate and once at 70% confluence, they were trypsinized and re-seeded in fresh SFM-HG medium containing G418 (Gibco-BRL, Gaithersburg, […].) at a concentration of 0.4 mg/ml.
(§2) Cells were photographed prior to selection, at 2 days and at 7 days post G418 addition (panels, a, b and c, respectively). […]

[2] = system: primary human middle ear epithelial cells; experiment: G418 selection of cultured cells; type: cell-based; details: 2 and 7 days post G418 addition
Description: as §1, §2

[3] = system: MUC2 mRNA; experiment: RT-PCR of mucin mRNA expression after retinoic acid; type: cell-based, human; details: primary cultures
Description: Polymerase chain reaction (PCR) assays were performed essentially following the package insert of the commercially available Gene-Amp kit (document No. 55635-6/89, available from Perkin-Elmer/Cetus, Emeryville, Calif.). The following reagents were mixed in a 0.5 mL polypropylene tube and used in performing PCR:
After mixing, the reaction mixture was overlayed with a drop of mineral oil to 30 cycles of PCR, with the following cycle profile: 30 second denaturation, 1 minute annealing and 2 minute extension. The PCR products were run on a 1.2% TAE agarose gel.
Expression of various genes was confirmed using the following PCR primers specific for: […]

[4] = system: MEK1/2 (MAPK kinase); experiment: Assay for MEK (phospho-MEK1/2 antibody detection); type: cell-based, human; details: HMEEC-1 cells treated for 5, 15 and 45 minutes
Description: Cells were treated with IL-1 alpha for 5, 15 and 45 minutes. The MEK assay was done according to the manufacturer's protocol (PhosphoPlus, MEK1/2 Antibody Kit; New England BioLabs, Beverly, Mass.). Antibodies specific to the phosphorylated (phospho-MEK1/2) and unphosphorylated (MEK1/2) MEK protein were used to distinguish between the phosphorylated and unphosphorylated forms of the protein.

With `CN[C@@H]1[C@@H](O)[C@@H](O[C@@H]2[C@@H](O)[C@H](O[C@H]3O[C@H]([C@@H](C)O)[C@@H](O)[C@H](O)[C@H]3N)[C@@H](N)C[C@H]2N)OC[C@]1(C)O` [G418] the “Response of cells to G418” value [1] was “resistance” and the “Response of cells to G418” value [2] was “sensitivity”.
In the case of `CC1=C(/C=C/C(C)=C/C=C/C(C)=C/C(=O)O)C(C)(C)CCC1` [Retinoic acid], the “MUC2 expression in response to RA” value [3] is reported as “no effect”.
With “IL-1 alpha: cytokine used to treat HMEEC-1 cells” the “Activation (phosphorylation) of MEK1/2” value [4] was “activates”.
